From patent US20040023386A1, “Modulation of nitric oxide synthase by PKC” (Joslin Diabetes Center, Inc., a Massachusetts corporation, priority 2000, published 2004)

What was measured:
eNOS mRNA [1] = test: eNOS mRNA level in BAECs (Northern blot); type: cell-based, bovine
Description: (§1) Bovine aortic endothelial cells (BAECs) from passages 4 to 10 were isolated. Confluent cells were placed in DMEM containing 1% platelet-deprived horse serum (PDHS) for 24 hours before being studied and pretreated with the following inhibitors: phosphatidylinositol-3 (PI-3) kinase-selective inhibitors wortmannin (Sigma Chemical Co) and LY294002 (BIOMOL Research Laboratories), protein kinase C (PKC) activator phorbol-12-myristate-13-acetate (PMA) (Sigma Chemical Co), general PKC inhibitor GF109203X (GFX) (Calbiochem-Novabiochem Corp), and PKCβ isoform-selective inhibitor LY333531 (Lilly Inc). Cells were then stimulated with insulin (Sigma Chemical Co), recombinant insulin-like growth factor-1 (IGF-1) (Upstate Biotechnology), and LPC (Avanti Polar Lipid) or alpha-IR3 antibodies.
(§2) Total RNA from cultured BAECs, PKCβ1-overexpressed BAECs, and vascular stroma from the epididymal fat pads of Zucker rats were isolated according to the guanidinium thiocyanate-phenol-chloroform method with TRI Reagent (Molecular Research Center) and solution D containing 4 mol/L guanidinium thiocyanate, 25 mmol/L sodium citrate, pH 7.0, 0.5% sarcosyl, and 0.1 mol/L 2-mercaptoethanol. Total RNA (20 μg) was fractionated and hybridized to 650-bp cDNA fragments of rat eNOS (kindly provided by Dr Mark A. Perella and Arthur M. E. Lee, Harvard School of Public Health, Boston, Mass.), which were labeled with the use of a DNA labeling system (Multiprime; Amersham Corp). The quantification of eNOS mRNA levels was performed with a PhosphorImager (Molecular Dynamics) and normalized to 36B4 mRNA.

eNOS protein = test: Immunoblot analysis of eNOS protein in BAECs; type: cell-based, bovine
Description: as §1
Cells were washed 3 times with ice-cold PBS, pH 7.4, lysed in 50 mmol/L Tris, pH 7.5, 2 mmol/L EDTA, 0.5 mmol/L EGTA, 2 mmol/L PMSF, 25 μg/mL leupeptin, 0.1 mg/mL aprotinin, 1 mmol/L dithiothreitol, 50 mmol/L NaF, and 1% Triton X-100 (Sigma Chemical Co); scraped from the dish; rotated for 1 hour at 4° C.; and centrifuged for 15 minutes at 14 000 g. Protein concentrations of the supernatant were measured according to the method of Bradford and separated with the use of 6% SDS-PAGE. The membrane was incubated for 1 hour with polyclonal anti-human eNOS antibody (Transduction Laboratories) diluted in PBS containing 0.1% Tween-20 and 1% BSA, washed 3 times for 10 minutes with PBS containing 0.1% Tween-20, and incubated with 0.1 μCi/ML ^125I-protein A (Amersham Life Science, Inc). Protein levels of eNOS were quantified with a PhosphorImager.

eNOS mRNA [2] = test: eNOS mRNA level in adenovirus-infected BAECs (PKCβ1 or β-Gal); type: cell-based, bovine; conditions: for increase of eNOS mRNA levels: LPC 100 μmol/L
Description: The construction of a replication-deficient recombinant adenovirus for PKCβ1 expression was performed as described in Becker et al. Methods Cell Biol. 1994;43:161-189. Adenovirus-mediated gene transfer to confluent BAECs was performed through a 1-hour adenoviral infection of 10^9 pfu/mL at 37° C. in DMEM containing 10% PDHS. The infected BAECs were then incubated in DMEM containing 1% PDHS for 24 hours, incubated with or without insulin (100 nmol/L) for an additional 6 hours, and harvested. AdV-CMV-PKCβ1- or β-galactosidase (β-Gal)-infected BAECs were assessed for PKC activity and protein expression as previously described.
as §2

[3] = system: IRS-2-associated PI-3 kinase; test: Assay of IRS-2-associated PI-3 kinase activity in BAECs; type: cell-based, bovine
Description: After preincubation with or without 100 nmol/L PMA for 30 minutes, BAECs were stimulated with insulin (100 nmol/L) for 5 minutes. Cells were processed as described previously for this assay. Aliquots of proteins from the supernatant were immunoprecipitated with 10 μL/ml anti-alpha-insulin receptor substrates (IRS)-2 antibodies (kindly provided by Dr Morris F. White, Joslin Diabetes Center, Boston, Mass) for 2 hours and bound to protein A-Sepharose beads at 4° C. as described previously. The lipids were quantified with a PhosphorImager.

NOS activity = test: Assay of NOS activity in BAECs; type: cell-based, bovine; conditions: insulin 100 nmol/L
Description: The amount of NOS activity produced by BAECs was measured by using an NOS Detect assay kit (Transduction Laboratories) according to the manufacturer's instructions. Briefly, BAECs were harvested in PBS containing 1 mmol/L EDTA and centrifuged at 12 000 g. The pellets were lysed in homogenization buffer containing 25 mmol/L Tris, pH 7.4, 1 mmol/L EDTA, and 1 mmol/L EGTA and centrifuged at 12 000 g. Aliquots from the supernatant were used for the measurement of NOS activity through the conversion of [^3H]L-arginine to [^3H]L-citrulline. Data were normalized by the amount of protein and reaction time.

eNOS mRNA [4] = test: eNOS mRNA level in vascular stroma from epididymal fat pads of Zucker rats; type: cell-based; conditions: insulin 100 nmol/L, 6 hours
Description: Vascular stromas were obtained from the epididymal fat pads of 12-week-old Zucker lean and fatty rats (Harlan Sprague Dawley, Inc). Epididymal fat pads were isolated, minced, and incubated with 0.2% collagenase I for 30 minutes at 37° C. Then, they were fractionated with the use of a Dounce homogenizer and centrifuged at 3000 g for 20 minutes to isolate vessels from adipocytes. Vascular stroma were washed with DMEM containing 0.2% BSA and incubated with DMEM containing 0.2% BSA with or without insulin for 6 hours at 37° C. T he purity of the isolated vascular stroma was quantified through immunohistochemical staining with anti-factor VIII antibody and through immunoblotting of the stroma with antibodies to smooth muscle cell alpha-actin. Only preparations that were stained positively in more than 90% of the vessels were used.
Total RNA from cultured BAECs, PKCβ1-overexpressed BAECs, and vascular stroma from the epididymal fat pads of Zucker rats were isolated according to the guanidinium thiocyanate-phenol-chloroform method with TRI Reagent (Molecular Research Center) and solution D containing 4 mol/L guanidinium thiocyanate, 25 mmol/L sodium citrate, pH 7.0, 0.5% sarcosyl, and 0.1 mol/L 2-mercaptoethanol. […] The quantification of eNOS mRNA levels was performed with a PhosphorImager (Molecular Dynamics) and normalized to 36B4 mRNA.

eNOS mRNA [5] = test: eNOS mRNA level in human umbilical endothelial cells; type: cell-based; conditions: IGF-1 25 nmol/L

## insulin: insulin (Sigma Chemical Co), used to stimulate endothelial cells
eNOS mRNA [1]
  concentration at which maximal effect on eNOS mRNA level was attained: < 100 nmol/L
eNOS mRNA [1]; insulin 0.1 nmol/L
  response of eNOS mRNA expression: significant increase
eNOS mRNA [1]; insulin 10 nmol/L
  increase of eNOS mRNA level: 50±12%
eNOS mRNA [1]; insulin 100 nmol/L
  maximum effect on eNOS mRNA level (dose response): 2 fold
eNOS mRNA [1]; insulin 100 nmol/L, 1 hour
  increase of eNOS mRNA expression: 33±9%
eNOS mRNA [1]; insulin 100 nmol/L, 6 hours
  increase of eNOS mRNA expression: 71±21%
eNOS mRNA [1]; insulin 100 nmol/L, 12 hours, maintained for 24 hours
  maximum increase of eNOS mRNA expression: 2 fold
eNOS mRNA [1]; insulin 100 nmol/L, Example 2
  increase of eNOS mRNA level compared with control: 58±20%
eNOS protein; insulin 100 nmol/L, Example 2
  increase of eNOS protein level: 74±9%
eNOS protein; insulin, 6 hours
  increase of eNOS protein levels: 43±16%
eNOS protein; insulin, 24 hours, maintained for 36 hours
  maximum increase of eNOS protein levels: 2 fold
eNOS mRNA [2]; insulin 100 nmol/L, BAECs with or without adenovirus containing only β-Gal
  enhancement of eNOS mRNA expression: ≤ 2 fold
eNOS mRNA [2]; insulin, cells infected with adenovirus containing the PKCβ1 isoform
  change of eNOS mRNA levels: did not increase
[3]; insulin 100 nmol/L, 5 minutes
  increase of IRS-2-associated PI-3 kinase activity: 5.4±0.4 fold
NOS activity; after 24 hours
  NOS activity: 176±7 pmol/mg protein min
eNOS mRNA [4]; vascular stroma from Zucker lean rats
  increase of eNOS mRNA levels: 50±16%
eNOS mRNA [4]; vascular stroma from insulin-resistant (Zucker fatty) rats
  effect on eNOS mRNA levels: ineffective

## lysophosphatidylcholine [LPC]
eNOS mRNA [2]; adenovirus-containing β-Gal cells
  increase of eNOS mRNA levels: 4.5 fold
eNOS mRNA [2]; control cells
  increase of eNOS mRNA levels: 5 fold
eNOS mRNA [2]; LPC, BAECs infected with the adenoviral-PKCβ1 isoform
  increase of eNOS mRNA: 4 fold

## COC[C@H]1OC(=O)c2coc3c2[C@@]1(C)C1=C(C3=O)[C@@H]2CCC(=O)[C@@]2(C)C[C@H]1OC(C)=O [wortmannin, reference compound]
NOS activity; wortmannin 100 nmol/L preincubation for 15 minutes
  insulin-induced NOS activity after preincubation with inhibitor: 123±13 pmol/mg protein min

## IGF-1: recombinant insulin-like growth factor-1 (Upstate Biotechnology)
eNOS mRNA [5]
  increase of eNOS mRNA level: 47±10%

## O=c1cc(N2CCOCC2)oc2c(-c3ccccc3)cccc12 [LY294002, reference compound]
eNOS mRNA [1]; LY294002 50 nmol/L, without insulin treatment
  decrease of basal eNOS mRNA expression: 30±4%
eNOS protein; LY294002 50 nmol/L
  decrease of basal eNOS protein level: 72±5%

## CCCCCCCCCCCCCC(=O)O[C@@H]1[C@@H](C)[C@@]2(O)[C@@H](C=C(CO)C[C@]3(O)C(=O)C(C)=C[C@@H]23)[C@@H]2C(C)(C)[C@]12OC(C)=O [PMA, phorbol-12-myristate-13-acetate, reference compound]
eNOS mRNA [1]; PMA 100 nmol/L, 12 hours
  increase of eNOS mRNA expression: 66±11%
eNOS mRNA [1]; PMA 100 nmol/L, 24 hours
  increase of eNOS mRNA expression: 105±14%
eNOS mRNA [1]; PMA 100 nmol/L, initial 6 hours
  change of eNOS mRNA level: did not change
eNOS mRNA [1]; preincubated with PMA for 30 minutes, then insulin
  remaining effect of insulin on eNOS mRNA levels after PMA preincubation: 14±13%
[3]; PMA 100 nmol/L preincubation 30 minutes
  effect on insulin-induced IRS-2-associated PI-3 kinase activity: mostly inhibited
[3]; PMA treatment
  basal PI-3 kinase activity: not changed

## CN(C)CCCn1cc(C2=C(c3c[nH]c4ccccc34)C(=O)NC2=O)c2ccccc21 [GFX, reference compound]
eNOS mRNA [1]; GFX 5 μmol/L without insulin, 6 hours
  increase of eNOS mRNA expression: 38±10%
eNOS mRNA [1]; both insulin and GFX
  increase of eNOS mRNA expression compared with control cells: 76±20%

## CN(C)C[C@@H]1CCn2cc(c3ccccc32)C2=C(C(=O)NC2=O)c2cn(c3ccccc23)CCO1 [LY333531, reference compound]
eNOS mRNA [1]; LY333531 20 nmol/L
  increase of eNOS mRNA expression: 60±14%
